Key:
spleen cells [1] = assay: Plaque Forming Cell Assay (inhibition rate of the antibody production); assay type: cell-based, Balb/c strain mice; conditions: Mus musculus; Concentration 10^-6 M; read-out: Inhibition rate (antibody production, PFC)
Experimental: Plaque Forming Cell Assay
The plaque forming cell assay was carried out by the following manner with reference to the method of Jerne et al. [Science, 140, 405 (1963)] and the method of Yamamoto et al. [Drugs Experimental Clinical Research, III(1), 5 (1982)].
Male Balb/c strain mice (7-week-old) (Charles River Co.) were sensitized with 1×10^8 sheep erythrocytes (product of Biotest Research Institute) administered via the caudal vein, and the spleens were extirpated 6 or 7 days after the sensitization. The extirpated spleens were immersed in Hanks' solution (Nissui Seiyaku) to make a cell suspension, which was then filtered, followed by centrifugal separation at 1200 rpm for 5 minutes. After centrifugal separation, the supernatant was discarded and the precipitate was treated with Tris.NH4 Cl solution to remove the erythrocytes, and then washed three times with Hanks' solution. After discarding the supernatant, the cells were suspended in an RPMI-1640 medium (Nissui Seiyaku) containing 10% bovine fetal serum (Gibco Co.), 50 μg/ml of streptomycin (Meiji Seika), […] of penicillin (Meiji Seika) and 2-mercaptoethanol (5×10^-5 M). In each well of a micro culture plate (NUNK Co., Ltd., 24 wells) were put 2 ml of the mixture of the cell suspension containing 1×10^7 of spleen cells, 5×10^6 sheep erythrocites and a test compound solution (10^-6 M) obtained by diluting the test compound dissolved in dimethylsulfoxide (10^-2 M) with the above mentioned RPMI-1640, and the cells were cultured at 37° C. for 5 days.
After the completion of the culturing, the cells were subjected to centrifugal separation at 2000 rpm for 5 minutes, and the resulting supernatant was removed. The precipitate was suspended in 1 ml of Hanks' solution, again subjected to centrifugal separation, suspended in 1 ml of Hanks' solution, and then, 50 μl of the suspension and 50 μl of sheep erythrocytes were added to 400 μl of 0.25% agarose/Hanks' solution heated to 50° C. in advance, and the mixture was scattered on a glass slide, placed on a plaque assay plate, and together with guinea pig complement (Cedarlene Institute) diluted 40-fold with a phosphate buffer solution, incubated at 37° C. for 1 to 2 hours. The number of the appearing direct plaque cells (direct PFC count) in suspension was counted.
The inhibition rate of the antibody production of the test compound was determined by the following equation. [formula]
The compound used for comparison was 5,6-dihydro-9-fluoro-3-phenylbenz[c]acridine-7-carboxylic acid [Japanese Published Unexamined Patent Application No. 233661/90, hereinafter referred to as Compound (A)] represented by formula (A). [drawing 62]
PFC count in Control means PFC count in the absence of the test compound (dimethylsulfoxide alone).

spleen cells [2] = assay: as above; assay type: cell-based, Balb/c strain mice; conditions: Mus musculus, read-out: Inhibition rate (antibody production, PFC); for inhibition at 10 µM: Concentration 10^-5 M; for inhibition at 0.1 µM: Concentration 10^-7 M; for inhibition at 0.01 µM: Concentration 10^-8 M
dd mice = assay: Acute toxicity; assay type: in vivo; conditions: mortality after 7 days
Experimental: The test compound was administered to dd mice having a weight of 20 to 25 g per os (p.o.) and intraperitoneally (i.p.). MLD (minimum lethal dose) was evaluated by measuring the mortality after 7 days from the day of administration.

Question: For `O=C(O)c1c2c(nc3ccc(F)cc13)-c1ccc(-c3ccc(F)cc3)cc1CC2` [Compound 1, 5,6-Dihydro-9-fluoro-3-(4-fluorophenyl)benz[c]acridine-7-carboxylic acid], which inhibition at 1 µM (spleen cells [1]) is on record?
Answer: 93.5%

Question: And the inhibition at 10 µM (spleen cells [2])?
Answer: 98.1%

Question: What about the inhibition at 0.1 µM (spleen cells [2]) of the same compound?
Answer: 69.2%

Question: Which results are given for `O=C(O)c1c2c(nc3ccc(F)cc13)-c1ccc(-c3ccc(F)cc3F)cc1CC2` [Compound 2, 3-(2,4-Difluorophenyl)-5,6-dihydro-9-fluorobenz [c]acridine-7-carboxylic acid]?
Answer: inhibition at 1 µM (spleen cells [1]): 96.3%; inhibition at 10 µM (spleen cells [2]): 98%; inhibition at 0.1 µM (spleen cells [2]): 86.7%

Question: `O=C(O)c1c2c(nc3ccc(F)cc13)-c1ccc(-c3c(F)cccc3F)cc1CC2` [Compound 3, 3-(2,6-Difluorophenyl)-5,6-dihydro-9-fluorobenz[c]acridine-7-carboxylic acid] was tested. Which inhibition at 1 µM (spleen cells [1]) did it give?
Answer: 99.4%

Question: What about the “MLD (minimum lethal dose)” value (dd mice; i.p.) of the same compound?
Answer: > 100

Question: What about the “MLD (minimum lethal dose)” value (dd mice; p.o.) of the same compound?
Answer: > 300

Question: What about the inhibition at 10 µM (spleen cells [2]) of the same compound?
Answer: 99.7%

Question: And the inhibition at 0.1 µM (spleen cells [2])?
Answer: 68.9%

Question: Which inhibition at 1 µM (spleen cells [1]) does the source give for `O=C(O)c1c2c(nc3ccc(F)cc13)-c1ccc(-c3cccs3)cc1CC2` [Compound 4, 5,6-Dihydro-9-fluoro-3-(2-thienyl)benz[c]acridine-7-carboxylic acid] here?
Answer: 99.2%

Question: And the “MLD (minimum lethal dose)” value (dd mice; i.p.)?
Answer: > 100

Question: And the “MLD (minimum lethal dose)” value (dd mice; p.o.)?
Answer: > 300

Question: What about the inhibition at 10 µM (spleen cells [2]) of the same compound?
Answer: 99.8%

Question: What about the inhibition at 0.1 µM (spleen cells [2]) of the same compound?
Answer: 88.4%

Question: For `O=C(O)c1c2c(nc3ccc(F)cc13)-c1cc(F)c(-c3ccccc3F)cc1CCC2` [Compound 13, 2,10-Difluoro-6,7-dihydro-3-(2-fluorophenyl)-5H-benzo[6,7]cyclohepta[1,2-b]quinoline-8-carboxylic acid], which inhibition at 1 µM (spleen cells [1]) is on record?
Answer: 95.7%

Question: And the inhibition at 10 µM (spleen cells [2])?
Answer: 95.2%

Question: And the inhibition at 0.1 µM (spleen cells [2])?
Answer: 82.4%

Question: With `O=C(O)c1c2c(nc3ccc(F)cc13)-c1cc(F)c(-c3ccccc3)cc1CC2` [Compound 16, 2,9-Difluoro-5,6-dihydro-3-phenylbenz[c]acridine-7-carboxylic acid] as the compound, how does the inhibition at 1 µM (spleen cells [1]) read?
Answer: 94.1%

Question: What about the inhibition at 0.1 µM (spleen cells [2]) of the same compound?
Answer: 88.5%

Question: And the inhibition at 0.01 µM (spleen cells [2])?
Answer: 56.8%

Question: How did the inhibition at 1 µM (spleen cells [1]) turn out when `O=C(O)c1c2c(nc3ccc(F)cc13)-c1cc(F)c(-c3ccccc3F)cc1CC2` [Compound 17, 2,9-Difluoro-5,6-dihydro-3-(2-fluorophenyl)benz[c]acridine-7-carboxylic acid] was run?
Answer: 91%

Question: And the inhibition at 0.1 µM (spleen cells [2])?
Answer: 82.5%

Question: What about the inhibition at 0.01 µM (spleen cells [2]) of the same compound?
Answer: 59.8%

Question: What does the source list for `O=C(O)c1c2c(nc3ccc(F)cc13)-c1cc(F)c(-c3ccccc3)cc1CCC2` [Compound 28, 2,10-Difluoro-6,7-dihydro-3-phenyl-5H-benzo[6,7]cyclohepta[1,2-b]quinoline-8-carboxylic acid]?
Answer: inhibition at 1 µM (spleen cells [1]): 93.6%; MLD (minimum lethal dose) (dd mice; i.p.): > 100; MLD (minimum lethal dose) (dd mice; p.o.): > 100; inhibition at 0.1 µM (spleen cells [2]): 90.1%; inhibition at 0.01 µM (spleen cells [2]): 73.6%

Question: `O=C(O)c1c2c(nc3ccc(F)cc13)-c1ccc(-c3ccccc3)cc1CCC2` [Compound 46, 6,7-Dihydro-10-fluoro-3-phenyl-5H-benzo[6,7]cyclohepta[1,2-b]quinoline-8-carboxylic acid] was tested. Which inhibition at 1 µM (spleen cells [1]) did it give?
Answer: 84.8%

Question: What about the inhibition at 10 µM (spleen cells [2]) of the same compound?
Answer: 94.9%

Question: What about the inhibition at 0.1 µM (spleen cells [2]) of the same compound?
Answer: 81.4%

Question: Which results are given for `O=C(O)c1c2c(nc3ccc(F)cc13)-c1ccc(-c3ccccc3)cc1CC2` [Compound A1, 5,6-dihydro-9-fluoro-3-phenylbenz[c]acridine-7-carboxylic acid, reference compound]?
Answer: inhibition at 1 µM (spleen cells [1]): 45.9%; inhibition at 10 µM (spleen cells [2]): 78.6%

— US5646283A, “Tetracyclic compound” (Kyowa Hakko Kogyo Co., Ltd., priority 1993, dated 1997)
